US10815219B2, “2,4-diaminoquinazoline derivatives for inhibiting endoplasmic reticulum (ER) stress” (The Board of Regents of the University of Oklahoma, priority 2017, dated 2020)

How the values were obtained:
ATF4 and CHOP protein = test: Western blotting of ATF4 and CHOP in Tm-treated INS-1 cells; format: cell-based, rat; conditions: Tm 0.1 μg/mL, 9c 20 μM, FIG. 8C
Text: We then determined the effect of 9c on the activation of the PERK pathway in β cells under ER stress. Activated PERK phosphorylates eukaryotic translation initiator factor 2a (eIF2α), which in turn attenuates general protein synthesis to relieve ER load. EIF2α phosphorylation also allows the selective translation of ATF4 mRNA, which encodes a transcription factor that induces the expression of the pro-apoptotic gene C/EBP-homologous protein (CHOP). Thus, we used ATF4 and CHOP expression levels as markers of PERK pathway activation. […] Together, our results that 9c inhibited the ER stress-mediated activation of all three UPR pathways indicate that 9c protects β cell survival by alleviating ER stress.
INS-1 cells were seeded in 60-mm dishes at 8×10^5 cells/dish and treated for the indicated times. Cells were then washed with PBS and lysed with lysis buffer (Cell Signaling Technology, Danvers, Mass.) containing EDTA (Thermo, IL) and phosphatase inhibitors (Thermo). Aliquots of 20 μg total protein were separated on 7% SDS-PAGE gels (Life Technologies) and transferred to PVDF membranes (Life Technologies). The membranes were probed with primary antibodies followed by the appropriate HRP-conjugated secondary antibodies (goat anti-rabbit IgG and goat anti-mouse IgG, 1:3000; Santa Cruz Biotechnology, CA, USA). Blots were then developed. […]

PDX1 and MafA mRNA = test: qRT-PCR of β cell transcription factors in Tm-treated INS-1 cells; format: cell-based, rat; conditions: Tm 0.1 μg/mL, 9c 20 μM, 24 h, FIG. 5C, D
Text: ER stress also impairs the most important function of β cells: the biosynthesis and secretion of insulin. Multiple steps of insulin synthesis and secretion are impaired under ER stress; they include insulin gene transcription, insulin mRNA stability, protein translation, and the insulin protein secretory process. First, we examined whether compound 9c could rescue Tm-suppressed mRNA levels of insulin genes. […] Second, we examined whether compound 9c affects the expression of β cell transcription factors PDX1 and MafA, which control β cell identity and the expression of insulin genes. Chronic exposure to supraphysiologic concentrations of glucose and its associated ER stress cause the down-regulation of expression of PDX1 and MafA. Consistent with this notion, Tm decreased the levels of PDX1 and MafA mRNA expression levels in INS-1 cells. […] Next, we explored whether compound 9c re-establishes Tm-impaired glucose-stimulated insulin secretion (GSIS).
INS-1 cells were seeded at 4×10^5 cells/well in 6-well plates and treated with compounds for the indicated times. Total RNA was extracted using TRIzol reagent (Invitrogen, Carlsbad, Calif.) according to the manufacturer's protocol, and 2 μg of total RNA was reverse transcribed using a Superscript kit (Invitrogen). […]

primary human islets = test: Glucose-stimulated insulin secretion in Tm-treated primary human islets; format: cell-based; conditions: Tm 1 μg/mL, 48 h, 20 mM glucose, FIG. 9C
Text: We determined whether 9c suppresses the apoptosis of primary human β cells induced by Tm treatment as assessed by TUNEL, which detects fragmentation of DNA, a marker of apoptotic cell death. […] Next, we investigated whether 9c restored the Tm-induced insulin secretion defect. […] ER stress induces activation of three branches of UPR (PERK, IRE1α, and ATF6), leading to up-regulation of ATF4, XBP1s, Bip, […], CHOP and eventual activation caspase 3 and cell apoptosis, while diminishing the expression of PDX1, MAFA and insulin genes, leading to β cell dysfunction. Compound 9c protects β cell against ER stress-mediated dysfunction and death by down-regulating ATF4, XBP1s, Bip, GRP94, CHOP, and caspase 3 and up-regulating PDX1, MAFA and insulin genes.
INS-1 or primary human islet cells were plated in 96-well plates. The second day, Tm and compound 9c were added and maintained for 24 h (INS-1) or 48 h (human islets). […] The secreted insulin was measured with insulin ELISA kits (for mouse insulin from Millipore and for human insulin from LifeTech). Cells were lysed with RIPA buffer (50 mM Tris HCl pH 7.4, 1% NP-40, 0.25% sodium deoxycholate, 150 mM NaCl), and total cellular protein was determined with a Bradford protein assay. […]

XBP1s mRNA = test: XBP1 splicing (qRT-PCR and RT-PCR) in Tm-treated INS-1 cells; format: cell-based, rat; conditions: Tm 0.1 μg/mL, 9c 20 μM
Text: Next, we investigated the mechanism by which 9c protects β cells against ER stress. In response to ER stress, all three branches of the UPR, IRE1α, PERK and ATF6, are activated to either restore cellular homeostasis/survival or lead to cell death, depending on the severity of ER stress. First, we asked whether 9c affects the activation of IRE1α in β cells under ER stress. Activated IRE1α cleaves X-box binding protein-1 (XBP1) mRNA to generate a spliced form (XBP1s) that is translated into a potent transcription factor which controls expression of UPR genes encoding factors involved in ER protein folding and degradation. We therefore determined the effect of 9c on IRE1α-mediated XBP1 splicing in INS-1 cells in the presence of Tm.
INS-1 cells were seeded at 4×10^5 cells/well in 6-well plates and treated with compounds for the indicated times. Total RNA was extracted using TRIzol reagent (Invitrogen, Carlsbad, Calif.) according to the manufacturer's protocol, and 2 μg of total RNA was reverse transcribed using a Superscript kit (Invitrogen). Real-time PCR was performed in 96-well format using SYBR Select Master Mix (Applied Biosystems, Foster City, Calif.) with an ABI 7500 PCR system (Applied Biosystems). The primer sequences used are shown in U.S. Ser. No. 62/542,408, Aug. 8, […].

Which results are given for `COc1ccc(CNc2nc(N3CCCCC3CO)nc3ccccc23)cc1` (racemic) [Compound 9c, (1-(4-((4-methoxybenzyl)amino)quinazolin-2-yl)piperidin-2-yl)methanol]?
ATF4 and CHOP protein levels (ATF4 and CHOP protein): decreased ATF4 and CHOP protein levels; PDX1 and MafA mRNA expression levels (PDX1 and MafA mRNA): almost completely reversed this decrease to normal levels; glucose-stimulated insulin secretion (GSIS) (primary human islets): significantly reversed this effect and restored the Tm-impaired GSIS; XBP1s mRNA (qRT-PCR) (XBP1s mRNA; FIG. 6A): suppressed; XBP1s mRNA (RT-PCR, electrophoretic separation of spliced and unspliced forms) (XBP1s mRNA; FIG. 6B): inhibits the Tm-induced generation of XBP1s mRNA
